According to patent US9562035B2, “Benzamide derivative useful as FASN inhibitors for the treatment of cancer” (Janssen Pharmaceutica NV, priority 2013, dated 2017):
pIC50: −log10 of the molar value.

What was measured:
[1] = target: T1, hFASN enzyme (full length) (Homo sapiens, UniProt P49327); test: Fatty Acid Synthase (FASN) Inhibition Scintillation Proximity Assay; assay type: biochemical; settings: for pIC50: mean where tested more than once, ~ = standard error of pIC50 larger than 0.5; for inhibition at 10 µM: read-out: FASN % Effect @1E−05M
T1 construct: 10 μL hFASN enzyme (full length, 300 ng, purified in house); made in house
Method in brief: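 Purified full-length human FASN (300 ng) incubated 60 min at room temperature with NADPH, [3H]-acetyl-CoA and malonyl-CoA in 100 mM KH2PO4 pH 7.5, 1 mM DTT; compound at 30 μM to 0.01 μM. [3H]-palmitate captured by SPA imaging beads; IC50 from 4-parameter fit, reported as pIC50.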

[2] = target: T2, FASN Keto-reductase Domain (Homo sapiens, UniProt P49327); test: Fatty Acid Synthase Keto-Reductase Domain (FASN KR) Inhibition; assay type: biochemical; settings: mean where tested more than once; read-out: FASN K-R Domain pIC50 (converted)
T2 construct: 10 μL hFASN enzyme (full length, 300 ng, purified in house) and 360 μM NADPH; made in house
Method in brief: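 Full-length human FASN (300 ng) in 100 mM KH2PO4 pH 7.5 with 360 μM NADPH and 180 mM ethyl acetoacetate (stock); A340 decrease read over 20 min at room temperature.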

A2780 ovarian cells [3] = test: A2780 Ovarian Cell Proliferation Assay in Lipid Reduced Medium, without Palmitate; assay type: cell-based; settings: Homo sapiens, A2780; lipid reduced medium, without palmitate, 96 h, MTT; read-out: Proliferation A2780 w/o Palmitate pIC50 (converted)
Method in brief: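 A2780 cells were seeded in 10% FCS medium and switched next day to 10% lipid-reduced serum without palmitate. Compounds at 0.01–30 μM were added with 0.2% DMSO, 0.2% fatty-acid-free BSA and 0.25% ethanol final. After 96 h, MTT absorbance at 544 nm was normalized to plate controls, and IC50/pIC50 came from a 4-parameter logistic fit.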

A2780 ovarian cells [4] = test: A2780 Ovarian Cell Proliferation Assay in Lipid Reduced Medium, with Palmitate (control); assay type: cell-based; settings: Homo sapiens, A2780; lipid reduced medium, 25 μM palmitate, 96 h, MTT; read-out: Proliferation A2780 with Palmitate pIC50 (converted)
Method in brief: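 A2780 cells were seeded in RPMI1640 with 10% FCS, then switched next day to medium with 10% lipid-reduced serum. Compound was added with final 25 μM palmitate, 0.2% fatty-acid-free BSA and 0.2% DMSO, and incubated 96 h at 37 °C. Read-out was MTT absorbance at 544 nm; pIC50 = −log(IC50) from curve fit.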

T1 sequence (P49327 whole entry): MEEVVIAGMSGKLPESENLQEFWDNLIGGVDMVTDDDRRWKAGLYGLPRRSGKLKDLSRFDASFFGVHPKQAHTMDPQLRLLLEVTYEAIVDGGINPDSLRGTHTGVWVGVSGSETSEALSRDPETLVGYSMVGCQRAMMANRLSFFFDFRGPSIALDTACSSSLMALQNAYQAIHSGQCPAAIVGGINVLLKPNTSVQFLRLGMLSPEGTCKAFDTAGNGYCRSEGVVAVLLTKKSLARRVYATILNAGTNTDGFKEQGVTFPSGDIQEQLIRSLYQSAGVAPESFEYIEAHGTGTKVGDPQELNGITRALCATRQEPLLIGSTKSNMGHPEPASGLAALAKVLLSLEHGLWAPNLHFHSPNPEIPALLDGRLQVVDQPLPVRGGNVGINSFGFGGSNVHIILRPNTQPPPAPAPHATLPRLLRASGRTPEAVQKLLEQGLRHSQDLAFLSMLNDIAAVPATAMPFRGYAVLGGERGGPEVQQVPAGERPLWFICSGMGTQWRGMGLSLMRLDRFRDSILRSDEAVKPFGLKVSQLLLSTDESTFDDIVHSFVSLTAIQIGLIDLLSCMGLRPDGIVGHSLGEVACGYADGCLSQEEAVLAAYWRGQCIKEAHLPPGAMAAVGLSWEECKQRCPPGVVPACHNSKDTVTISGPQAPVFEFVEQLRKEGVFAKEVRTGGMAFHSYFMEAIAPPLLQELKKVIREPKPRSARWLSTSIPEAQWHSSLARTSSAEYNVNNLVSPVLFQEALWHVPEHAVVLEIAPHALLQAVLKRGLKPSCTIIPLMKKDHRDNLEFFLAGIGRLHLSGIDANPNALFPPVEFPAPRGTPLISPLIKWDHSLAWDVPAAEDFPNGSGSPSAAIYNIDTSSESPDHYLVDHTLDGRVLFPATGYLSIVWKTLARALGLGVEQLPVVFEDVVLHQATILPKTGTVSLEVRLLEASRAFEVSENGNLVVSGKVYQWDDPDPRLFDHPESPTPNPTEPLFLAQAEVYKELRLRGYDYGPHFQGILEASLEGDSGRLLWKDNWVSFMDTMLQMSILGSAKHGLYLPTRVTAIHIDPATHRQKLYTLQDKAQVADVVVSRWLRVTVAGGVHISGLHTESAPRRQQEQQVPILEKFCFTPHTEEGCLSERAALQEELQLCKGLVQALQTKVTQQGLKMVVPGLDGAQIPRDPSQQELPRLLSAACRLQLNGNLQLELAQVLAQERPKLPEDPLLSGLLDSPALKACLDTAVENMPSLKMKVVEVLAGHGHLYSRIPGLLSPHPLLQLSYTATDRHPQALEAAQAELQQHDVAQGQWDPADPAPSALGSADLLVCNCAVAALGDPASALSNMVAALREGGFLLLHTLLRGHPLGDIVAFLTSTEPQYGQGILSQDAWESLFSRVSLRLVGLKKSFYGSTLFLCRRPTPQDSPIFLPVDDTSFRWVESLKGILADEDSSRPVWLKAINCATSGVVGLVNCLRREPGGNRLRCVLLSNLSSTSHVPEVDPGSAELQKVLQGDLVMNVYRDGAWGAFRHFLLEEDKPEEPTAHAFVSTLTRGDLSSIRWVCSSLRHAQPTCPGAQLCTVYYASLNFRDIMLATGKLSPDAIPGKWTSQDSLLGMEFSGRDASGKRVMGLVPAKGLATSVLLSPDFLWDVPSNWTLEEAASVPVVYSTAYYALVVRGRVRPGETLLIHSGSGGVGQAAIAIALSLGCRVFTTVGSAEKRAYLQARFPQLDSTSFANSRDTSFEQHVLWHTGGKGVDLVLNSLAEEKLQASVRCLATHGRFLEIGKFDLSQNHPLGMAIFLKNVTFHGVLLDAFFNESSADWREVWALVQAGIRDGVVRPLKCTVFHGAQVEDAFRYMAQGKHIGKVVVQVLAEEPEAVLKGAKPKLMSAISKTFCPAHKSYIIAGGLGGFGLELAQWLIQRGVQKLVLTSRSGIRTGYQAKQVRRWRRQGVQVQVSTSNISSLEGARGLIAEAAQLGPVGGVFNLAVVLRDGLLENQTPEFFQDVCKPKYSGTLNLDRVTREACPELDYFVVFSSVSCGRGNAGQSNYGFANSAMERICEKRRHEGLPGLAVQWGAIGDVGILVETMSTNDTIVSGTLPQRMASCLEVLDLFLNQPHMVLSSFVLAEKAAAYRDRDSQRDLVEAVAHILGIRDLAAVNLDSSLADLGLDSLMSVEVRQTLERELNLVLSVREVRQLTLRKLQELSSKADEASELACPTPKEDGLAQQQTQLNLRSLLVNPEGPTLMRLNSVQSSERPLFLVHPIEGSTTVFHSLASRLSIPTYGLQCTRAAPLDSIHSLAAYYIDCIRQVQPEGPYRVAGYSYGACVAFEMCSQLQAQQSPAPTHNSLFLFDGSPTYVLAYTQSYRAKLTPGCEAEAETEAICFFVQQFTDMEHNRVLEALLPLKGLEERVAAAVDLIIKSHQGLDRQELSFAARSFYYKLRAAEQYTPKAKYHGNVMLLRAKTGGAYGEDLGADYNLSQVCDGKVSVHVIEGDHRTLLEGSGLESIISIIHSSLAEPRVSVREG
T2 sequence (P49327 whole entry, the tested form may be a part): as the sequence (P49327 whole entry) above

SMILES	pIC50 [1]	inhibition at 10 µM [1] [%]	IC50 [2] [nM]	IC50 (A2780 ovarian cells [3]) [nM]	IC50 (A2780 ovarian cells [4]) [nM]
Cc1ccc(C(=O)N2CCC(c3ccc(-c4cnn(C)c4)cc3)CC2)cc1NC(=O)[C@H]1CCCN1 [Compound 172, (R)—N-(2-methyl-5-(4-(4-(1-methyl-1H-pyrazol-4-yl)phenyl)piperidine-1-carbonyl)phenyl)pyrrolidine-2-carboxamide]	6.31	91	741	794	> 10000
Cc1ccc(C(=O)N2CCC(c3ccc(-c4cnn(C)c4)cc3)CC2)cc1NC(=O)c1cncs1 [Compound 174, N-(2-methyl-5-(4-(4-(1-methyl-1H-pyrazol-4-yl)phenyl)piperidine-1-carbonyl)phenyl)thiazole-5-carboxamide]	7.22	103	135	141	> 10000
CCCCC(C)N1CCC(C(=O)Nc2cc(C(=O)N3CCC(c4ccc(-c5cnn(C)c5)cc4)CC3)ccc2C)CC1 (stereo not shown) [Compound 175, 1-(hexan-2-yl)-N-(2-methyl-5-(4-(4-(1-methyl-1H-pyrazol-4-yl)phenyl)piperidine-1-carbonyl)phenyl)piperidine-4-carboxamide]	7.31	108	77.6	38.9	~10000
CCCCCN1CCC(C(=O)Nc2cc(C(=O)N3CCC(c4ccc(-c5cnn(C)c5)cc4)CC3)ccc2C)CC1 [Compound 176, N-(2-methyl-5-(4-(4-(1-methyl-1H-pyrazol-4-yl)phenyl)piperidine-1-carbonyl)phenyl)-1-pentylpiperidine-4-carboxamide]	7.47	110	105	53.7	~10000
Cc1ccc(C(=O)N2CCC(c3ccc(-c4cnn(C)c4)cc3)CC2)cc1NC(=O)C1CCN(C2CCCCC2)CC1 [Compound 177, 1-cyclohexyl-N-(2-methyl-5-(4-(4-(1-methyl-1H-pyrazol-4-yl)phenyl)piperidine-1-carbonyl)phenyl)piperidine-4-carboxamide]	7.59	112	50.1	13.8	> 10000
Cc1ccc(C(=O)N2CCC(c3ccc(-c4cnn(C)c4)cc3)CC2)cc1NC(=O)C1CCN(CC(C)(C)C)CC1 [Compound 178, N-(2-methyl-5-(4-(4-(1-methyl-1H-pyrazol-4-yl)phenyl)piperidine-1-carbonyl)phenyl)-1-neopentylpiperidine-4-carboxamide]	7.34	106	58.9	26.9	> 10000
Cc1ccc(C(=O)N2CCC(c3ccc(-c4cnn(C)c4)cc3)CC2)cc1NC(=O)C1CCN(CC(C)C)CC1 [Compound 179, 1-isobutyl-N-(2-methyl-5-(4-(4-(1-methyl-1H-pyrazol-4-yl)phenyl)piperidine-1-carbonyl)phenyl)piperidine-4-carboxamide]	7.58	108	37.2	57.5	> 6170
Cc1ccc(C(=O)N2CCC(c3ccc(-c4cnn(C)c4)cc3)CC2)cc1NC(=O)C1CCN(C2CCCC2)CC1 [Compound 180, 1-cyclopentyl-N-(2-methyl-5-(4-(4-(1-methyl-1H-pyrazol-4-yl)phenyl)piperidine-1-carbonyl)phenyl)piperidine-4-carboxamide]	7.60	104	40.7	16.6	> 10000
CCCN1CCC(C(=O)Nc2cc(C(=O)N3CCC(c4ccc(-c5cnn(C)c5)cc4)CC3)ccc2C)CC1 [Compound 181, N-(2-methyl-5-(4-(4-(1-methyl-1H-pyrazol-4-yl)phenyl)piperidine-1-carbonyl)phenyl)-1-propylpiperidine-4-carboxamide]	7.38	108	110	32.4	> 10000
COc1ccc(C(=O)N2CC(c3ccc(-c4cnn(C)c4)cc3)C2)cc1NC(=O)c1ccc(N2CCOCC2)nc1 [Compound 184, N-(2-methoxy-5-(3-(4-(1-methyl-1H-pyrazol-4-yl)phenyl)azetidine-1-carbonyl)phenyl)-6-morpholinonicotinamide]	7.44	105	123	58.9	> 10000
CCN1CCC(C(=O)Nc2cc(C(=O)N3CCC(c4ccc(-c5cnn(C)c5)cc4)CC3)ccc2C)C1 (stereo not shown) [Compound 185, 1-ethyl-N-(2-methyl-5-(4-(4-(1-methyl-1H-pyrazol-4-yl)phenyl)piperidine-1-carbonyl)phenyl)pyrrolidine-3-carboxamide]	6.60	101	501	~501	> 10000
CCCN1CCC(C(=O)Nc2cc(C(=O)N3CCC(c4ccc(-c5cnn(C)c5)cc4)CC3)ccc2C)C1 (stereo not shown) [Compound 186, N-(2-methyl-5-(4-(4-(1-methyl-1H-pyrazol-4-yl)phenyl)piperidine-1-carbonyl)phenyl)-1-propylpyrrolidine-3-carboxamide]	7.02	106	331	~195	> 10000
Cc1ccc(C(=O)N2CCC(c3ccc(-c4cnn(C)c4)cc3)CC2)cc1NC(=O)C1CN(C2CCCC2)C1 [Compound 187, 1-cyclopentyl-N-(2-methyl-5-(4-(4-(1-methyl-1H-pyrazol-4-yl)phenyl)piperidine-1-carbonyl)phenyl)azetidine-3-carboxamide]	6.85	103	302	~282	> 10000
Cc1ccc(C(=O)N2CCC(c3ccc(-c4cnn(C)c4)cc3)CC2)cc1NC(=O)C1CCN(CC(C)C)C1 (stereo not shown) [Compound 188, 1-isobutyl-N-(2-methyl-5-(4-(4-(1-methyl-1H-pyrazol-4-yl)phenyl)piperidine-1-carbonyl)phenyl)pyrrolidine-3-carboxamide]	7.21	104	170	105	> 10000
Cc1ccc(C(=O)N2CCC(c3ccc(-c4cnn(C)c4)cc3)CC2)cc1NC(=O)C1CCN(C2CCCC2)C1 (stereo not shown) [Compound 189, 1-cyclopentyl-N-(2-methyl-5-(4-(4-(1-methyl-1H-pyrazol-4-yl)phenyl)piperidine-1-carbonyl)phenyl)pyrrolidine-3-carboxamide]	6.90	102	309	263	> 10000
Cc1ccc(C(=O)N2CCC(c3ccc(-c4cnn(C)c4)cc3)CC2)cc1NC(=O)C1CN(CC(C)(C)C)C1 [Compound 190, N-(2-methyl-5-(4-(4-(1-methyl-1H-pyrazol-4-yl)phenyl)piperidine-1-carbonyl)phenyl)-1-neopentylazetidine-3-carboxamide]	7.13	102	251	257	> 10000
Cc1ccc(C(=O)N2CCC(c3ccc(-c4cnn(C)c4)cc3)CC2)cc1NC(=O)C1CN(C2CCCCC2)C1 [Compound 191, 1-cyclohexyl-N-(2-methyl-5-(4-(4-(1-methyl-1H-pyrazol-4-yl)phenyl)piperidine-1-carbonyl)phenyl)azetidine-3-carboxamide]	7.16	103	191	141	9330
Cc1ccc(C(=O)N2CCC(c3ccc(-c4cnn(C)c4)cc3)CC2)cc1NC(=O)C1CCN(CC(C)(C)C)C1 (stereo not shown) [Compound 192, N-(2-methyl-5-(4-(4-(1-methyl-1H-pyrazol-4-yl)phenyl)piperidine-1-carbonyl)phenyl)-1-neopentylpyrrolidine-3-carboxamide]	7.27	105	170	79.4	> 10000
Cc1ccc(C(=O)N2CCC(c3ccc(-c4cnn(C)c4)cc3)CC2)cc1NC(=O)C1CN(C2CCC(C)C2)C1 (stereo not shown) [Compound 193, N-(2-methyl-5-(4-(4-(1-methyl-1H-pyrazol-4-yl)phenyl)piperidine-1-carbonyl)phenyl)-1-(3-methylcyclopentyl)azetidine-3-carboxamide]	7.22	109	178	148	7080
Cc1ccc(C(=O)N2CCC(c3ccc(-c4cnn(C)c4)cc3)CC2)cc1NC(=O)C1CCN(C2CCC(C)C2)C1 (stereo not shown) [Compound 194, N-(2-methyl-5-(4-(4-(1-methyl-1H-pyrazol-4-yl)phenyl)piperidine-1-carbonyl)phenyl)-1-(3-methylcyclopentyl)pyrrolidine-3-carboxamide]	6.93	102	214	158	~8710
